Like-named read-outs stand apart in the source and are kept apart here.
Key:
HA1 adenosine receptor = biological target: T1, HA1 adenosine receptor (Homo sapiens, UniProt P30542); assay: Human adenosine A1 receptor affinity (Ki hA1); assay type: binding
T1 sequence (P30542 1-326): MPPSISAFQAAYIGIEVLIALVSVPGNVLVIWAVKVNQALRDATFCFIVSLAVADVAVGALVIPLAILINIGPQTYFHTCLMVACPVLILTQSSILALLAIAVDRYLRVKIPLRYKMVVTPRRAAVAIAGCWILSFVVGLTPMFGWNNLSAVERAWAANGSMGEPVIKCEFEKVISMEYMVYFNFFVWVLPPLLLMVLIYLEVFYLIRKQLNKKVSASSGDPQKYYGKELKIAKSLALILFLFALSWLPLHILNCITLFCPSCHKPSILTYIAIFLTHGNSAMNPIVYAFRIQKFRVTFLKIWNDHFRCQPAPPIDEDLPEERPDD

[1] = biological target: T2, human adenosine A2A receptor (Homo sapiens, UniProt P29274); assay: Human adenosine A2A receptor [3H]-SCH-58261 binding assay
T2 construct: expressed in transfected cells; host or cells: CHO cells, Semliki Forest virus expression system; membrane preparation
T2 sequence (P29274 whole entry): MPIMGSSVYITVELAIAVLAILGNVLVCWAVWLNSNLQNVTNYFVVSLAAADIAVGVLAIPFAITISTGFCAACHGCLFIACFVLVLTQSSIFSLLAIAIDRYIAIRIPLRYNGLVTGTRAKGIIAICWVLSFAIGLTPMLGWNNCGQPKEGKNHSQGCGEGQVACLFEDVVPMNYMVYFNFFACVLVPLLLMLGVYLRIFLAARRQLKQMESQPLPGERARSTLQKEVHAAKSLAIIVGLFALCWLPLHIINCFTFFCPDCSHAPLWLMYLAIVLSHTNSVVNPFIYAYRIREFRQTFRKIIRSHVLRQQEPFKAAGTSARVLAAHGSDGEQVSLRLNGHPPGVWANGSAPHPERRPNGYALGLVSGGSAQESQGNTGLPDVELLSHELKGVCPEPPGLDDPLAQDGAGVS
Experimental: Human Adenosine A2A Receptor
The human adenosine A2A receptor was recombinantly expressed in chinese hamster ovary (CHO) cells using the semliki forest virus expression system. Cells were harvested, washed twice by centrifugation, homogenized and again washed by centrifugation. The final washed membrane pellet was suspended in a Tris (50 mM) buffer containing 120 mM NaCl, 5 mM KCl, 2 mM CaCl2 and 10 MM MgCl2 (pH 7.4) (buffer A). […] Compounds were tested at 10 concentrations from 10 μM-0.3 nM. All assays were conducted in duplicate and repeated at least two times. Assay plates were incubated for 1 hour at room temperature before centrifugation and then bound ligand determined using a Packard Topcount scintillation counter. IC50 values were calculated using a non-linear curve fitting program and Ki values calculated using the Cheng-Prussoff equation.

[2] = affinity to human adenosine A1 receptor
[3] = affinity to human adenosine A2A receptor, read-out: Ki HA2A
[4] = calculated ratio of the affinity to the HA1 receptor to the HA2a receptor
[5] = recombinant human A2A in CHO cell membranes, [3H]-SCH-58261, Cheng-Prussoff, read-out: Ki hA2A

SMILES | Ki (HA1 adenosine receptor; [2]) [nM] | Ki [1, 3] [nM] | selectivity (A1/A2a) [1, 4] | further results
CCCCN(Cc1ccccc1)C(=O)c1cc(N)n2nc(-c3ccc(OC)s3)nc2c1 [Example 73, 5-Amino-2-(5-methoxy-thiophen-2-yl)-[1,2,4]triazolo[1,5-a]pyridine-7-carboxylic acid benzyl-butyl-amide] | 136 | 37.4 | 3.6 | –
CC(C)N(C)C(=O)c1cc(N)n2nc(-c3ccccn3)nc2c1 [Example 411, 5-Amino-2-pyridin-2-yl-[1,2,4]triazolo[1,5-a]pyridine-7-carboxylic acid isopropyl-methyl-amide] | – | – | – | Ki (HA1 adenosine receptor): 1410 nM; selectivity (A1/A2a) ([1]; ratio KiHA1 divided by KiHA2A): 22.6; Ki [1, 5]: 62.3 nM
CCN(C(=O)c1cc(N)n2nc(-c3ccc(OC)s3)nc2c1)C(C)C [Example 65, 5-Amino-2-(5-methoxy-thiophen-2-yl)-[1,2,4]triazolo[1,5-a]pyridine-7-carboxylic acid ethyl-isopropyl-amide] | 211 | 51.5 | 4.1 | –
CCN(C)C(=O)c1cc(N)n2nc(-c3ccccn3)nc2c1 [Example 406, 5-Amino-2-pyridin-2-yl-[1,2,4]triazolo[1,5-a]pyridine-7-carboxylic acid ethyl-methyl-amide] | – | – | – | Ki (HA1 adenosine receptor): 3930 nM; selectivity (A1/A2a) ([1]; ratio KiHA1 divided by KiHA2A): 26.8; Ki [1, 5]: 147 nM
Nc1cc(C(=O)NCc2ccc(Cl)cc2)cc2nc(-c3ccc(Cl)o3)nn12 [Example 244, 5-Amino-2-(5-chloro-furan-2-yl)-[1,2,4]triazolo[1,5-a]pyridine-7-carboxylic acid 4-chloro-benzylamide] | 190 | 218 | 0.9 | –
Nc1cc(C(=O)N2CCCC2)cc2nc(-c3ccccc3)nn12 [Example 150, (5-Amino-2-phenyl-[1,2,4]triazolo[1,5-a]pyridin-7-yl)-pyrrolidin-1-yl-methanone] | 711 | 82.3 | 8.6 | –
Nc1cc(C(=O)N(Cc2ccccc2)Cc2ccccc2)cc2nc(-c3ccccn3)nn12 [Example 435, 5-Amino-2-pyridin-2-yl-[1,2,4]triazolo[1,5-a]pyridine-7-carboxylic acid dibenzylamide] | – | – | – | Ki (HA1 adenosine receptor): 121 nM; selectivity (A1/A2a) ([1]; ratio KiHA1 divided by KiHA2A): 19; Ki [1, 5]: 6.4 nM
COc1ccccc1CNC(=O)c1cc(N)n2nc(-c3ccc[nH]3)nc2c1 [Example 93, 5-Amino-2-(1H-pyrrol-2-yl)-[1,2,4]triazolo[1,5-a]pyridine-7-carboxylic acid 2-methoxy-benzylamide] | 4860 | 304 | 16.0 | –
Nc1cc(C(=O)NC2CCCCC2)cc2nc(-c3ccccn3)nn12 [Example 48, 5-Amino-2-pyridin-2-yl-[1,2,4]triazolo[1,5-a]pyridine-7-carboxylic acid cyclohexylamide] | 366 | 62.1 | 5.9 | –
COc1ccc(-c2nc3cc(C(=O)NCCc4ccccc4Cl)cc(N)n3n2)s1 [Example 78, 5-Amino-2-(5-methoxy-thiophen-2-yl)-[1,2,4]triazolo[1,5-a]pyridine-7-carboxylic acid [2-(2-chloro-phenyl)-ethyl]-amide] | 97.4 | 389 | 0.3 | –
CCN(CC)C(=O)C1CCCN(C(=O)c2cc(N)n3nc(-c4nccs4)nc3c2)C1 (centres unmarked) [Example 381, 1-(5-Amino-2-thiazol-2-yl-[1,2,4]triazolo[1,5-a]pyridine-7-carbonyl)-piperidine-3-carboxylic acid diethylamide] | – | – | – | Ki (HA1 adenosine receptor): 2050 nM; selectivity (A1/A2a) ([1]; ratio KiHA1 divided by KiHA2A): 11.4; Ki [1, 5]: 180 nM
CCN(Cc1ccncc1)C(=O)c1cc(N)n2nc(-c3ccc(Br)o3)nc2c1 [Example 314, 5-Amino-2-(5-bromo-furan-2-yl)-[1,2,4]triazolo[1,5-a]pyridine-7-carboxylic acid ethyl-pyridin-4-ylmethyl-amide] | 59.1 | 1.2 | 49.3 | –
C=CCN(C)C(=O)c1cc(N)n2nc(-c3ccc(Br)o3)nc2c1 [Example 267, 5-Amino-2-(5-bromo-furan-2-yl)-[1,2,4]triazolo[1,5-a]pyridine-7-carboxylic acid allyl-methyl-amide] | 181 | 4.3 | 42.0 | –
CCN(CC)C(=O)c1cc(N)n2nc(-c3ccc(Br)o3)nc2c1 [Example 21, 5-Amino-2-(5-bromo-furan-2-yl)-[1,2,4]triazolo[1,5-a]pyridine-7-carboxylic acid diethylamide] | 232 | – | – | –
Cc1ccc(-c2nc3cc(C(=O)N4CCCCC4)cc(N)n3n2)o1 [Example 28, [5-Amino-2-(5-methyl-furan-2-yl)-[1,2,4]triazolo[1,5-a]pyridin-7-yl]-piperidin-1-yl-methanone] | 696 | – | – | –
Nc1cc(C(=O)N2CCCC2)cc2nc(-c3ccco3)nn12 [Example 106, (5-Amino-2-furan-2-yl-[1,2,4]triazolo[1,5-a]pyridin-7-yl)-pyrrolidin-1-yl-methanone] | 1730 | – | – | –
CCN(CCc1ccccn1)C(=O)c1cc(N)n2nc(-c3ccc(Br)o3)nc2c1 [Example 352, 5-Amino-2-(5-bromo-furan-2-yl)-[1,2,4]triazolo[1,5-a]pyridine-7-carboxylic acid ethyl-(2-pyridin-2-yl-ethyl)-amide] | 144 | – | – | –
CN(C)C(=O)CN(C)C(=O)c1cc(N)n2nc(-c3ccc(Br)o3)nc2c1 [Example 384, 5-Amino-2-(5-bromo-furan-2-yl)-[1,2,4]triazolo[1,5-a]pyridine-7-carboxylic acid dimethylcarbamoylmethyl-methyl-amide] | – | – | – | Ki (HA1 adenosine receptor): 711 nM
Nc1cc(C(=O)N2CCCCC2)cc2nc(-c3ccco3)nn12 [Example 107, (5-Amino-2-furan-2-yl-[1,2,4]triazolo[1,5-a]pyridin-7-yl)-piperidin-1-yl-methanone] | 2720 | – | – | –
CN(CCc1ccccc1)C(=O)c1cc(N)n2nc(-c3ccc(Br)o3)nc2c1 [Example 306, 5-Amino-2-(5-bromo-furan-2-yl)-[1,2,4]triazolo[1,5-a]pyridine-7-carboxylic acid methyl-phenethyl-amide] | 87.8 | – | – | –
COC[C@H]1CCCN1C(=O)c1cc(N)n2nc(-c3ccc(Br)o3)nc2c1 [Example 386, [5-Amino-2-(5-bromo-furan-2-yl)-[1,2,4]triazolo[1,5-a]pyridin-7-yl]-(R-2-methoxymethyl-pyrrolidin-1-yl)-methanone] | – | – | – | Ki (HA1 adenosine receptor): 292 nM
Cc1ccc(-c2nc3cc(C(=O)N4CCCC4)cc(N)n3n2)o1 [Example 27, [5-Amino-2-(5-methyl-furan-2-yl)-[1,2,4]triazolo[1,5-a]pyridin-7-yl]-pyrrolidin-1-yl-methanone] | 940 | – | – | –

The next lines start with results.

Ki (HA1 adenosine receptor; [2]) [nM] | Ki [1, 3] [nM] | selectivity (A1/A2a) [1, 4] | SMILES | further results
355 | 25.2 | 14.1 | CCNC(=O)c1cc(N)n2nc(-c3ccc(Br)o3)nc2c1 [Example 335, 5-Amino-2-(5-bromo-furan-2-yl)-[1,2,4]triazolo[1,5-a]pyridine-7-carboxylic acid ethylamide] | –
1600 | 123 | 13.0 | CCN1CCN(C(=O)c2cc(N)n3nc(-c4ccc(Br)o4)nc3c2)CC1 [Example 299, [5-Amino-2-(5-bromo-furan-2-yl)-[1,2,4]triazolo[1,5-a]pyridin-7-yl]-(4-ethyl-piperazin-1-yl)-methanone] | –
1300 | 149 | 8.7 | CC1CCCC(C)N1C(=O)c1cc(N)n2nc(-c3ccc(Br)o3)nc2c1 (centres unmarked) [Example 303, [5-Amino-2-(5-bromo-furan-2-yl)-[1,2,4]triazolo[1,5-a]pyridin-7-yl]-(2,6-dimethyl-piperidin-1-yl)-methanone] | –
65.7 | – | – | CC1CCCCN1C(=O)c1cc(N)n2nc(-c3ccc(Br)o3)nc2c1 (centres unmarked) [Example 336, [5-Amino-2-(5-bromo-furan-2-yl)-[1,2,4]triazolo[1,5-a]pyridin-7-yl]-(2-methyl-piperidin-1-yl)-methanone] | –
276 | – | – | Nc1cc(C(=O)N2CCCCC2)cc2nc(-c3ccc(Br)o3)nn12 [Example 23, [5-Amino-2-(5-bromo-furan-2-yl)-[1,2,4]triazolo[1,5-a]pyridin-7-yl]-piperidin-1-yl-methanone] | –
286 | – | – | CC1CCCN1C(=O)c1cc(N)n2nc(-c3ccc(Br)o3)nc2c1 (centres unmarked) [Example 270, [5-Amino-2-(5-bromo-furan-2-yl)-[1,2,4]triazolo[1,5-a]pyridin-7-yl]-(2-methyl-pyrrolidin-1-yl)-methanone] | –
253 | – | – | Nc1cc(C(=O)N2CCSCC2)cc2nc(-c3ccc(Br)o3)nn12 [Example 297, [5-Amino-2-(5-bromo-furan-2-yl)-[1,2,4]triazolo[1,5-a]pyridin-7-yl]-thiomorpholin-4-yl-methanone] | –
548 | – | – | Nc1cc(C(=O)N2CCCC2)cc2nc(-c3ccc(Br)o3)nn12 [Example 22, [5-Amino-2-(5-bromo-furan-2-yl)-[1,2,4]triazolo[1,5-a]pyridin-7-yl]-pyrrolidin-1-yl-methanone] | –
